Results from patent US11091479B2, “Triazolopyridin-3-ones or their salts and pharmaceutical compositions comprising the same” (YUHAN CORPORATION, priority 2018, dated 2021).
Where a name gives a salt, the structure may show the parent alone.

Key:
Type in all cases: biochemical
recombinant human VAP-1 = molecular target: T1, recombinant human VAP-1 (Homo sapiens, UniProt Q16853); experiment: Activity on recombinant human VAP-1, HRP-coupled Amplex Red hydrogen peroxide assay, benzylamine substrate; conditions: 30 min incubation at 37° C., 1 mM benzylamine, read-out: Inhibitory Activity (IC50, nM) human VAP-1
T1 construct: purchased R&D systems
T1 sequence (Q16853 1-763): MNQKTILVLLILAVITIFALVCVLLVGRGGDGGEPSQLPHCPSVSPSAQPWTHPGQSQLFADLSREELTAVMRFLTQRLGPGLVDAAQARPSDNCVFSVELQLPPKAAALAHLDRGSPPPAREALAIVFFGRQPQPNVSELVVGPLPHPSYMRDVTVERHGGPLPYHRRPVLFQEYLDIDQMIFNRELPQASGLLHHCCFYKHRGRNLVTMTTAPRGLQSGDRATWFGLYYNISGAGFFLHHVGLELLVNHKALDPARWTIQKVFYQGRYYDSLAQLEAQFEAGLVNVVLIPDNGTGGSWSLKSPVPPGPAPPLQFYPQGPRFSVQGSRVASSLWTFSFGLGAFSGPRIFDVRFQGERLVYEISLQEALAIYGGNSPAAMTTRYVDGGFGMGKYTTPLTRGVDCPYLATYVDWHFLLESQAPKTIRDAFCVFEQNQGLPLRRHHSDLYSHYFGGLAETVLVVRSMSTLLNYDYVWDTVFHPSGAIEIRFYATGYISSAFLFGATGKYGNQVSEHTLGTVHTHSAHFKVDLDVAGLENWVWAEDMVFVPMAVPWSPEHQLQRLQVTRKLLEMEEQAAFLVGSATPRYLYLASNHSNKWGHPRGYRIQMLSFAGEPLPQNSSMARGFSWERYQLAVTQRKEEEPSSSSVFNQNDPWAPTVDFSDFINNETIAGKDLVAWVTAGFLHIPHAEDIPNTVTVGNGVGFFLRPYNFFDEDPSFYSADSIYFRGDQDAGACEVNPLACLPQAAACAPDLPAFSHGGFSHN
Method: (§1) The compounds according to the present technology were evaluated in terms of activity on recombinant human VAP-1 (R&D systems) by measuring the level of hydrogen peroxide in horseradish peroxidase (HRP)-coupled reaction using Amplex Red Hydrogen Peroxide Assay Kit (Molecular Probes, Invitrogen, USA). The experiment was carried out at room temperature using benzylamine as a substrate. In the HRP-coupled reaction, hydrogen peroxide oxidation of 10-acetyl-3,7-dihydroxyphenoxazine (Amplex Red reagent) produces resorufin, which is a highly fluorescent compound. Briefly, the test compound was dissolved in dimethyl sulfoxide (DMSO) at a concentration of 20 mM. The dose-response assessment was made by 1:3 serial dilution in DMSO, thereby creating a 8 point curve. The concentration of the upper part was controlled according to the efficacy of the compounds, followed by dilution with a reaction buffer solution to obtain a final DMSO concentration of less than 1%. To each well of a 96 black well plate, human VAP-1 purified in 50 mM sodium phosphate buffer solution (pH7.4) was added. The test compounds dissolved in DMSO were incubated with the human VAP-1 enzymes at 37° C. for 30 minutes. After 30-minute incubation, each well was added with a reaction mixture containing 200 uM Amplex Red reagent prepared from 50 mM sodium phosphate buffer solution (pH 7.4), 1 mM benzylamine, and 1 U/mL HRP. Fluorescence intensity was measured at several time points during 1-2 hours using a microplate reader (Flexstation3, Molecular Devices) under the wavelength condition exciting at 544 nm and reading the emission at 590 nm. The inhibitory effect of the compounds was measured as a decrease (%) in the signal rate as compared to the control group without any inhibitor (only diluted DMSO). Data was fixed to a logistic model with four variables and IC50 value was calculated using GraphPad Prism program.

[1] = molecular target: T2, recombinant human DAO (diamine oxidase) (Homo sapiens, UniProt P19801); experiment: Activity on recombinant human DAO, method similar to VAP-1 assay, 1 mM putrescine substrate; conditions: read-out: Inhibitory Activity (IC50, nM) DAO
T2 construct: purchased R&D systems
T2 sequence (P19801 20-751): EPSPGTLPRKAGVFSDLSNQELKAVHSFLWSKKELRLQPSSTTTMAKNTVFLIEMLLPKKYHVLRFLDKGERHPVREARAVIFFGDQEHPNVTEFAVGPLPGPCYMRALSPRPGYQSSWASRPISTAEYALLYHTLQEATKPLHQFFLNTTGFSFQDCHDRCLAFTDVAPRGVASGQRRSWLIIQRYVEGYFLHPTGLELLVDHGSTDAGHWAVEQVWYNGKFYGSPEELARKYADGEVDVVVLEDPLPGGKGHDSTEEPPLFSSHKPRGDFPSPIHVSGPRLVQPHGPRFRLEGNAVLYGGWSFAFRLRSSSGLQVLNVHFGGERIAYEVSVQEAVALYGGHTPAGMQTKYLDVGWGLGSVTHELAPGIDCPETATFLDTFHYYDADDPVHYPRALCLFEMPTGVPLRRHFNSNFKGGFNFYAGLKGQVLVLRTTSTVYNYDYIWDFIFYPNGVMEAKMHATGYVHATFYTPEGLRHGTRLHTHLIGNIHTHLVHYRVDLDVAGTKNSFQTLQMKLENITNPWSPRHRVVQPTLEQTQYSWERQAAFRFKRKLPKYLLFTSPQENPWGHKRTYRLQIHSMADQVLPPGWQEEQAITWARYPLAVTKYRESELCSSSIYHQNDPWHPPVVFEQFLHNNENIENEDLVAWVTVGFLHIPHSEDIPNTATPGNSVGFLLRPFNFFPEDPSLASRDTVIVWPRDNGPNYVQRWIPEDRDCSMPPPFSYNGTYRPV
Method: as §1
(§2) In addition, the compounds according to the present technology were evaluated in terms of activity on a recombinant human MAO-A (monoamine oxidase-A, Sigma-Aldrich) and a recombinant human MAO-B(monoamine oxidase-B, Sigma-Aldrich) by using as substrates, 0.5 mM tyramine and 1 mM benzylamine, respectively, with a method similar to the activity evaluation method for recombinant human VAP-1. The compounds according to the present technology were also evaluated in terms of activity on a recombinant human DAO (diamine oxidase, R&D systems) by using as a substrate 1 mM putrescine with a method similar to the activity evaluation method for recombinant human VAP-1.

[2] = molecular target: T3, recombinant human MAO-A (monoamine oxidase-A) (Homo sapiens, UniProt P21397); experiment: Activity on recombinant human MAO-A, method similar to VAP-1 assay, 0.5 mM tyramine substrate; conditions: read-out: Inhibitory Activity (IC50, nM) MAO-A
T3 construct: purchased Sigma-Aldrich
T3 sequence (P21397 1-527): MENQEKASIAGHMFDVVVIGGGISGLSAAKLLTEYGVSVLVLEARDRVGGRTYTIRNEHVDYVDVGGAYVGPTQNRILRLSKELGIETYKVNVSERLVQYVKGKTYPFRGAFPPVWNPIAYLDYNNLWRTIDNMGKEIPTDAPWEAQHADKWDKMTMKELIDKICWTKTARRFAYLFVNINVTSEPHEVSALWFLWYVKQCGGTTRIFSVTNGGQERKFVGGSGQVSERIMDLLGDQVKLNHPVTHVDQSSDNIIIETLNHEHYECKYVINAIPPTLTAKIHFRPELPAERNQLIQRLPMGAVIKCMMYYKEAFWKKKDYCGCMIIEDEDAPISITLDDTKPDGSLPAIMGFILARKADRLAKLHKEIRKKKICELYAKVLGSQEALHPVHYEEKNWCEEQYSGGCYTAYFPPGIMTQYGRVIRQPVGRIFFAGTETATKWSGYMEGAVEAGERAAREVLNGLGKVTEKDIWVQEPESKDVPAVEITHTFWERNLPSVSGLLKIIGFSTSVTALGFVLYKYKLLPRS
Method: as §1, §2

[3] = molecular target: T4, recombinant human MAO-B (monoamine oxidase-B) (Homo sapiens, UniProt P27338); experiment: Activity on recombinant human MAO-B, method similar to VAP-1 assay, 1 mM benzylamine substrate; conditions: read-out: Inhibitory Activity (IC50, nM) MAO-B
T4 construct: purchased Sigma-Aldrich
T4 sequence (P27338 1-520): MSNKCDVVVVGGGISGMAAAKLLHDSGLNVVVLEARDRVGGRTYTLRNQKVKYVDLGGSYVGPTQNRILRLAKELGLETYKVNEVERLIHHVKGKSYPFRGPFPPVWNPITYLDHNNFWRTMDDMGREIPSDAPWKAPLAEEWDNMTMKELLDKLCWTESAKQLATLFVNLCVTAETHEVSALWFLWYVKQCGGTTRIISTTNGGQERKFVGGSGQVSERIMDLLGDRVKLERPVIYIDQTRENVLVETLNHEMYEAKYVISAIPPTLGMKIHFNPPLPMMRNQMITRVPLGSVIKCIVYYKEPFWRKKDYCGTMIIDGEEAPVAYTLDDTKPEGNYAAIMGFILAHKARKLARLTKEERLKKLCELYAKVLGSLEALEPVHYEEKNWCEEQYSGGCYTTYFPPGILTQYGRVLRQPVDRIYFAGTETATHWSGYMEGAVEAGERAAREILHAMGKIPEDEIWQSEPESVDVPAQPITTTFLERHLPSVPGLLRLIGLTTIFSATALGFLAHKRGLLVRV
Method: as §1, §2

Row | Compound | IC50 (recombinant human VAP-1) [nM] | IC50 [1] [nM] | IC50 [2] [nM] | IC50 [3] [nM]
1 | NC/C(=C\F)Cn1nc2ccc(Br)cn2c1=O [Example 1, 2-[(2E)-2-(aminomethyl)-3-fluoroprop-2-en-1-yl]-6-bromo[1,2,4]triazolo[4,3-a]pyridin-3(2H)-one hydrochloride] | 87 | 100 | – | –
2 | CC(=O)Nc1ccc(-c2ccc3nn(C/C(=C/F)CN)c(=O)n3c2)cc1 [Example 2, N-[4-[2-[(2E)-2-(aminomethyl)-3-fluoroprop-2-en-1-yl]-3-oxo-2,3-dihydro[1,2,4]triazolo[4,3-a]pyridin-6-yl]phenyl]acetamide trifluoroacetate] | 6.2 | < 100 | 68400 | 1780
3 | CS(=O)(=O)c1ccc(-c2ccc3nn(C/C(=C/F)CN)c(=O)n3c2)cc1 [Example 3, 2-[(2E)-2-(aminomethyl)-3-fluoroprop-2-en-1-yl]-6-[4-(methylsulfonyl)phenyl][1,2,4]triazolo[4,3-a]pyridin-3(2H)-one trifluoroacetate] | 3.6 | < 100 | > 100000 | 231
4 | NC/C(=C\F)Cn1nc2ccc(-c3ccc(S(=O)(=O)N4CCOCC4)cc3)cn2c1=O [Example 4, 2-[(2E)-2-(aminomethyl)-3-fluoroprop-2-en-1-yl]-6-[4-(morpholin-4-ylsulfonyl)phenyl][1,2,4]triazolo[4,3-a]pyridin-3(2H)-one trifluoroacetate] | 6.2 | < 100 | > 100000 | > 10000
5 | NC/C(=C\F)Cn1nc2ccc(-c3ccc(-c4nc[nH]n4)cc3)cn2c1=O [Example 5, 2-[(2E)-2-(aminomethyl)-3-fluoroprop-2-en-1-yl]-6-[4-(1H-1,2,4-triazol-3-yl)phenyl][1,2,4]triazolo[4,3-a]pyridin-3(2H)-one trifluoroacetate] | 2 | < 100 | > 100000 | 1450
6 | CC(=O)Nc1cc(-c2ccc3nn(C/C(=C/F)CN)c(=O)n3c2)ccn1 [Example 8, N-[4-[2-[(2E)-2-(aminomethyl)-3-fluoroprop-2-en-1-yl]-3-oxo-2,3-dihydro[1,2,4]triazolo[4,3-a]pyridin-6-yl]pyridin-2-yl]acetamide trifluoroacetate] | 14 | < 100 | – | –
7 | NC/C(=C\F)Cn1nc2ccc(-c3ccc(N4CCOCC4)nc3)cn2c1=O [Example 11, 2-[(2E)-2-(aminomethyl)-3-fluoroprop-2-en-1-yl]-6-[6-(morpholin-4-yl)pyridin-3-yl][1,2,4]triazolo[4,3-a]pyridin-3(2H)-one hydrochloride] | 3.7 | 0.2 | – | 39
8 | CC(=O)Nc1ccc(-c2cccc3nn(C/C(=C/F)CN)c(=O)n23)cc1 [Example 18, N-[4-[2-[(2E)-2-(aminomethyl)-3-fluoroprop-2-en-1-yl]-3-oxo-2,3-dihydro[1,2,4]triazolo[4,3-a]pyridin-5-yl]phenyl]acetamide trifluoroacetate] | 90 | – | – | –
9 | NC/C(=C\F)Cn1nc2cccc(-c3ccc(-c4ccon4)cc3)n2c1=O [Example 19, 2-[(2E)-2-(aminomethyl)-3-fluoroprop-2-en-1-yl]-5-[4-(1,2-oxazol-3-yl)phenyl][1,2,4]triazolo[4,3-a]pyridin-3(2H)-one trifluoroacetate] | 38 | – | – | –
10 | NC/C(=C\F)Cn1nc2cccc(-c3ccc4c(c3)OCO4)n2c1=O [Example 20, 2-[(2E)-2-(aminomethyl)-3-fluoroprop-2-en-1-yl]-5-(1,3-benzodioxol-5-yl)[1,2,4]triazolo[4,3-a]pyridin-3(2H)-one trifluoroacetate] | > 100 | – | – | –
11 | NC/C(=C\F)Cn1nc2cccc(-c3ccc4nonc4c3)n2c1=O [Example 21, 2-[(2E)-2-(aminomethyl)-3-fluoroprop-2-en-1-yl]-5-(2,1,3-benzoxadiazol-5-yl)[1,2,4]triazolo[4,3-a]pyridin-3(2H)-one trifluoroacetate] | 150 | – | – | –
12 | NC/C(=C\F)Cn1nc2cc(-c3ccc(N4CCOCC4)nc3)ccn2c1=O [Example 33, 2-[(2E)-2-(aminomethyl)-3-fluoroprop-2-en-1-yl]-7-[6-(morpholin-4-yl)pyridin-3-yl][1,2,4]triazolo[4,3-a]pyridin-3(2H)-one hydrochloride] | 0.4 | 5.8 | – | 130
